According to US20250115576A1, “THERAPEUTIC COMPOUNDS AND METHODS OF USE THEREOF” (Genentech, Inc., priority 2018, published 2025):

Legend:
[1] = target: T1, hNav1.7 (Homo sapiens (Human), UniProt Q15858); test: Tritiated compound binding to membranes from cells expressing hNav1.7 and the β1 subunit (Nav1.7 LBA); conditions: competitive binding vs [3H]compound, membranes with hNav1.7 and β1 subunit; read-out: Nav1.7 LBA EVO IC50
Description: Example 64a. Tritiated Compound Binding to Membranes Isolated from Cells that Heterologously Express hNav1.7 and the β 1 Subunit
Preparation of membranes containing recombinantly expressed sodium channels: Frozen recombinant cell pellets are thawed on ice and diluted to 4 times the cell pellet weight with ice cold 50 mM Tris HCl, pH 7.4 buffer. The cell suspensions are homogenized on ice using a motorized glass dounce homogeniser. Homogenates are further diluted 8.4 times with ice cold 50 mM Tris HCl, pH 7.4 buffer and then centrifuged at 200×g at 4° C. for 15 minutes. The supernatants are collected and centrifuged at 10000×g at 4° C. for 50 min. The pellets are then re-suspended in 100 mM NaCl, 20 mM Tris HCl, pH 7.4 buffer containing 1% v/v protease inhibitors (Calbiochem) and re-homogenized on ice. The homogenized membranes are then processed through a syringe equipped with a 26 gauge needle. Protein concentrations arer determined by Bradford Assay and the membranes are stored at −80° C.
Radioligand Binding Studies: Saturation experiments. A competitive NaV1.7 inhibitor having a methyl group is tritiated. Three tritiums are incorporated in place of methyl hydrogens to generate [^3H]compound. Binding of this radioligand is performed in 5 mL borosilicate glass test tubes at room temperature. Binding is initiated by adding membranes to increasing concentrations of [^3H]compound in 100 mM NaCl, 20 mM Tris HCl, pH 7.4 buffer containing 0.01% w/v bovine serum albumin (BSA) for 18 h. Non-specific binding is determined in the presence of 1 μM unlabeled compound. After 18 h, the reactants are filtered through GF/C glass fiber filters presoaked in 0.5% w/v polyethylene imine. […] [^3H]compound bound to filters is quantified by liquid scintillation counting.
Competitive binding experiments: Binding reactions are performed in 96-well polypropylene plates at room temperature for 18 h. […] Bound radioactivity is determined by liquid scintillation counting.
Data Analysis: For saturation experiments, non-specific binding is subtracted from total binding to provide specific binding and these values are recalculated in terms of pmol ligand bound per mg protein. Saturation curves are constructed and dissociation constants are calculated using the single site ligand binding model: Beq=(Bmax*X)/(X+Kd), where Beq is the amount of ligand bound at equilibrium, Bmax is the maximum receptor density, Kd is the dissociation constant for the ligand, and X is the free ligand concentration. For competition studies percent inhibition is determined and IC50 values are calculated using a 4 parameter logistic model (% inhibition=(A+((B−A)/(1+((x/C)^D)))) using XLfit, where A and B are the maximal and minimum inhibition respectively, C is the IC50 concentration and D is the (Hill) slope. […]
Target sequence in this assay (Q15858 whole entry, looked up): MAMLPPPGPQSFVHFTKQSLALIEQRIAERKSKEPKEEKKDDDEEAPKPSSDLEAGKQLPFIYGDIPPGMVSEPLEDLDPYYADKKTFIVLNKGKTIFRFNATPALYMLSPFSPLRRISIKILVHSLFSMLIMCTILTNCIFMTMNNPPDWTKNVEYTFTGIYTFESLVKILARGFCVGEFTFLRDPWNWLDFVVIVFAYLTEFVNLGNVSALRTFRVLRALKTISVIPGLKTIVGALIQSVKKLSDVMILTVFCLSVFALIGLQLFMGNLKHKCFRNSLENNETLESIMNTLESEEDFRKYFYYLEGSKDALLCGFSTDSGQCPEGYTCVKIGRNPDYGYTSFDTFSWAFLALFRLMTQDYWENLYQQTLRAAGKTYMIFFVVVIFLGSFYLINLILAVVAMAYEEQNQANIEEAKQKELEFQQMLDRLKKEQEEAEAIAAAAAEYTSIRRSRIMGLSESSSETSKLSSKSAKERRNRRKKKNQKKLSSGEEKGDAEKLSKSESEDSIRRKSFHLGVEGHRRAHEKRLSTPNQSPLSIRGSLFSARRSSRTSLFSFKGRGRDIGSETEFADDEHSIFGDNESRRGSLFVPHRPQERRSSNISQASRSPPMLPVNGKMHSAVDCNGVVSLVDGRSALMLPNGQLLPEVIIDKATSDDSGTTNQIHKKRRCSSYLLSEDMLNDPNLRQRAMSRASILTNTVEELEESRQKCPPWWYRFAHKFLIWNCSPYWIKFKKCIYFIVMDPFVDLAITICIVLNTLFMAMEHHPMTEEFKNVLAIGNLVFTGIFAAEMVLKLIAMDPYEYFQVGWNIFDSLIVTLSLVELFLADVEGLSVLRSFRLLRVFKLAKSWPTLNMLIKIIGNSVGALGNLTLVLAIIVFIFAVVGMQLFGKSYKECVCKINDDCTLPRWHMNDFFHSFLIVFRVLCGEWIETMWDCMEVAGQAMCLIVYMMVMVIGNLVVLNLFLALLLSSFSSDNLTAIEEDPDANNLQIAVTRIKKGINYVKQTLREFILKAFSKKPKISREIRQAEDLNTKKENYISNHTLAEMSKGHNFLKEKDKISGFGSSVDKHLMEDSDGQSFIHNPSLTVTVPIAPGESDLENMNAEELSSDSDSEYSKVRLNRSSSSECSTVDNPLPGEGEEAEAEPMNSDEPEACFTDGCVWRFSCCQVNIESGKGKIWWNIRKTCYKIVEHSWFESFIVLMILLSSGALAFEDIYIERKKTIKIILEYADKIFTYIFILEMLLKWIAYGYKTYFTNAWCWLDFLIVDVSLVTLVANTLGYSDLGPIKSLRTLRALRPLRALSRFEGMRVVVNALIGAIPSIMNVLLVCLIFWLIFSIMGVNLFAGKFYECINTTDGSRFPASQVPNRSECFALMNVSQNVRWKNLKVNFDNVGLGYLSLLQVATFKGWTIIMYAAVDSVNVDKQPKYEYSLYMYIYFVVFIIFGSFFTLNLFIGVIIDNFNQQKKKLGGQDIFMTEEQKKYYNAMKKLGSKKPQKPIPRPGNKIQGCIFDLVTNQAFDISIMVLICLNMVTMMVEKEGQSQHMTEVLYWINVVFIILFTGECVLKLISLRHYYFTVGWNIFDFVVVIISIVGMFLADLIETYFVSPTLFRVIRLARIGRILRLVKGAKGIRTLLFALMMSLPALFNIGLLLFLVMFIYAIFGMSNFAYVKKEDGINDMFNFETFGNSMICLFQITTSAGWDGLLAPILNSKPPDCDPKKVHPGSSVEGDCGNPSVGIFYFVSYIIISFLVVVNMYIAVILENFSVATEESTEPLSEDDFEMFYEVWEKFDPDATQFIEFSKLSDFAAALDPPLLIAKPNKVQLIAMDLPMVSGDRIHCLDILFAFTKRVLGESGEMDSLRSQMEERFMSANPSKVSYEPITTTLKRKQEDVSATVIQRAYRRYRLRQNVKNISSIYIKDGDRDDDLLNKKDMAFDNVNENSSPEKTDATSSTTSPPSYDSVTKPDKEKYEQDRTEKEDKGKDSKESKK
Target sequence in this assay (Q07699 whole entry partner, looked up): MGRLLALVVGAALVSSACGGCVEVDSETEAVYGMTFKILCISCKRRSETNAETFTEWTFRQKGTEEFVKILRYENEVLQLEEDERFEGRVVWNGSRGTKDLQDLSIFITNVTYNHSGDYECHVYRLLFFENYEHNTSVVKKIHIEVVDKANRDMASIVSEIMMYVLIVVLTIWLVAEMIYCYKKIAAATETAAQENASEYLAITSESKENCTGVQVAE

[2] = target: T1, hNav1.7; test: Patch voltage clamp electrophysiology (EP), Syncropatch 384PE, CHO cells stably expressing Nav1.7; type: cell-based; conditions: holding potential −50 mV, 7.5 min compound incubation, read-out: EP_SP hNav1.7 EVO IC50
In short: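 Whole-cell automated patch clamp on CHO cells stably expressing human Nav1.7, holding at −50 mV; after a −10 mV prepulse and 20 ms recovery at −150 mV, test-pulse currents at −10 mV are measured. Inhibition taken after 7.5 min compound exposure; full block defined with TTX.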
Target sequence in this assay (Q15858 other isoform, or with tags, fused parts or gaps): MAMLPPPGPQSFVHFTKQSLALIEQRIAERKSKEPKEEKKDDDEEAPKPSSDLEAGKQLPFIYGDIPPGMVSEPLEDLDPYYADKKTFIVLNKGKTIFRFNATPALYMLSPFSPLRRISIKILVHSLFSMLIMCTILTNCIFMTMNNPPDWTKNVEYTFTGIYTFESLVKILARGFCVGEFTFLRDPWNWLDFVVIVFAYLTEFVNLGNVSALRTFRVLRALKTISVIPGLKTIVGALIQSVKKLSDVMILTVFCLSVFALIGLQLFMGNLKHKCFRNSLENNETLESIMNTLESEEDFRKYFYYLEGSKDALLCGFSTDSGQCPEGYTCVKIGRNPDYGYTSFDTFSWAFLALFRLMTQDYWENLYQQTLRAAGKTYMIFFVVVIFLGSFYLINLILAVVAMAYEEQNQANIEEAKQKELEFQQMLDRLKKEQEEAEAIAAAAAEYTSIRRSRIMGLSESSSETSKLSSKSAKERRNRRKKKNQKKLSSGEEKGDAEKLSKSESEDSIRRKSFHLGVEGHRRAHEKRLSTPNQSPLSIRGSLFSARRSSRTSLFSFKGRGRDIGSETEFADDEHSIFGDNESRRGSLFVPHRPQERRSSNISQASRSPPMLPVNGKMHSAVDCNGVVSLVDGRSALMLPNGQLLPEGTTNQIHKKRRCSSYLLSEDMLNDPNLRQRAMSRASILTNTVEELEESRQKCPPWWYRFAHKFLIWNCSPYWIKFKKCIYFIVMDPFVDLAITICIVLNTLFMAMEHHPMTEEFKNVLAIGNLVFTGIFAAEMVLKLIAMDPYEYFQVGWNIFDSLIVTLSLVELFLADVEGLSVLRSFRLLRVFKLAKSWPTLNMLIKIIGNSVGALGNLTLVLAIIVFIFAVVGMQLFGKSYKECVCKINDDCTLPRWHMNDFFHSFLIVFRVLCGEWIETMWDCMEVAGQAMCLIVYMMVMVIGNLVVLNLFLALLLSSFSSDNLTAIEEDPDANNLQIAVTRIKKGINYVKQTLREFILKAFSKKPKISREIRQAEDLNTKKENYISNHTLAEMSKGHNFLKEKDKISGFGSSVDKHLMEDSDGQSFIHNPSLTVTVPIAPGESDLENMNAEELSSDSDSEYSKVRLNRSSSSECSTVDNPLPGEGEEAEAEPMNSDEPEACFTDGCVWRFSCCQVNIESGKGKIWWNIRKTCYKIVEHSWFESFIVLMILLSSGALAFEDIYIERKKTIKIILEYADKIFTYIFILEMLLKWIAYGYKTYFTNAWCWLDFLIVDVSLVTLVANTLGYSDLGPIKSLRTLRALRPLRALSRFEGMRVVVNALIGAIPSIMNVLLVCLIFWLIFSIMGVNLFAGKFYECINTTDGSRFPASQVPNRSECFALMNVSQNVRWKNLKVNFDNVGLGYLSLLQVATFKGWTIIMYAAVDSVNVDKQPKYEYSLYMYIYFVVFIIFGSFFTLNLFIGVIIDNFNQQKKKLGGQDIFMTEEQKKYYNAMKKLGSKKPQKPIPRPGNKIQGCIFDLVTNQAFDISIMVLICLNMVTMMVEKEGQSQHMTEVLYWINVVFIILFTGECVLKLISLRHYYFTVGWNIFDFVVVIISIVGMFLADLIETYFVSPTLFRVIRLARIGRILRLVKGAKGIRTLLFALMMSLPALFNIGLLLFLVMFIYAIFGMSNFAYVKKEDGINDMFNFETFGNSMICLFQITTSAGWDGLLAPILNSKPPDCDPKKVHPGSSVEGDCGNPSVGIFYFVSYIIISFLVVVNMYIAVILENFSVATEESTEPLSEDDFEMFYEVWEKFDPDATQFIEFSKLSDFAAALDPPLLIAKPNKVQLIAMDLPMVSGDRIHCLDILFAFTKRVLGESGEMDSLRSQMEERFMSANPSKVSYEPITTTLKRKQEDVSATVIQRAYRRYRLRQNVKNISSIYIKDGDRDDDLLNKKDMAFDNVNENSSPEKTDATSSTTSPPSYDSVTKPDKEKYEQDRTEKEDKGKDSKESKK

Compound | IC50 [1] [nM] | IC50 [2] [nM]
5-Chloro-6-(((1S,2S,4S)-4-(3-chlorophenyl)-2-(dimethylamino)cyclohexyl)oxy)-N-(pyrimidin-4-yl)pyridine-3-sulfonamide [Example 27] | 7.12 | 0.574
6-(((1S,2S,4S)-4-(3-(1,1-difluoroethyl)phenyl)-2-(dimethylamino)cyclohexyl)oxy)-2-methyl-N-(pyrimidin-4-yl)pyridine-3-sulfonamide [Example 41] | 1.9 | 1.95
CN(C)[C@H]1C[C@@H](c2cccc(C(F)(F)F)c2)CC[C@@H]1Nc1ccc(S(=O)(=O)Nc2ccncn2)cn1 (racemic) [Example 2, 6-(((1S,2S,4S)-2-(Dimethylamino)-4-(3-(trifluoromethyl)phenyl)cyclohexyl)amino)-N-(pyrimidin-4-yl)pyridine-3-sulfonamide] | 9.17 | 0.427
Cc1nc(O[C@H]2CC[C@H](c3cccc(C(F)(F)F)n3)C[C@@H]2N(C)C)ccc1S(=O)(=O)Nc1ccncn1 [Example 51, 6-(((1S,2S,4S)-2-(dimethylamino)-4-(6-(trifluoromethyl)pyridin-2-yl)cyclohexyl)oxy)-2-methyl-N-(pyrimidin-4-yl)pyridine-3-sulfonamide] | 0.985 | 4.59
